# Measurements: patent publication US20030059511A1, “Sweetener compositions and uses thereof” (AJINOMOTO CO., INC., priority 1999, published 2003)
# Assays:
# [1] = Magnification of sweetness intensity in the cola drink (sensory evaluation against sucrose cola drinks); format: in vivo, human
# Description: And the magnification of sweetness intensity in the cola drink can be also determined by the same method compared to the control solution of cola drink containing 10% sucrose.
# The composition of cola drink is as follows.
# As for the concentration of the references, the sucrose concentrations of previous (a) to (e) were used. In consequence, the magnification of sweetness intensity in the cola drink of derivative 1 was 22600 times, and that of derivative 2 was 4900 times.
# And the magnification of sweetness intensity in the cola drink can be also determined by the same method compared to the reference solution of cola drink containing 10% sucrose.
# The components of cola drink is as follows.
# As for the concentration of the references, the sucrose concentrations of previous (a) to (e) were used. As the results, the magnification of sweetness intensity in the cola drink of derivative 1 was 22600 times, and that of derivative 2 was 4900 times.
# And the magnification of sweetness in the cola drink can be also determined by the same method compared to the control solution of cola drink containing 10% sucrose.
# As for the concentration of the references, the sucrose concentrations of previous (a) to (e) were used. As a result, the magnification of sweetness intensity in the cola drink of derivative 1 was 22600 times, and that of derivative 2 was 4900 times.
# [2] = Measurement of the magnification of sweetness intensity in aqueous solution (sensory evaluation against sucrose solutions); format: in vivo, human; conditions: aqueous solution
# Experimental: (§1) An aqueous solution was prepared by diluting derivative 2 to be PSE 10% concentration (15.5 mg/1000 ml=10/6500 g/100 ml), assuming that the intensity of sweetness of derivative 2 was 6500 times that of sucrose. Separately, aqueous sucrose solutions having sucrose concentrations of (a)6.94%, (b)8.33%, (c)10%, (d)12%, and (e)14.4% were prepared. The sensory evaluation was performed by determining which sucrose solution was closest to the solution of derivative 2 in the sweetness intensity. The result of calculation of the average of points of 20 panelists was 2.25 point.
# (§2) The intensity of sweetness of the solution of derivative 2 was 8.75% according to the following equation: (10.0−8.33)×0.25+8.33=8.75. Accordingly, the intense sweetness of derivative 2 was 5600 (=8.75/0.00155) times that of sucrose. According to the same experiment, the intensity of sweetness of derivative 1 was 22600 times that of sucrose. Furthermore, the magnification of sweetness intensity of other derivatives (3 to 9) can be determined by the same method.
# as §2, with “intensity of” for “intense”
# as §1, with “intense” for “intensity of”
# The sweetness intensity of the solution of derivative 2 was 8.75% according to the following equation: (10.0−8.33)×0.25+8.33=8.75. Therefore, the magnification of sweetness intensity of derivative 2 was 5600 (=8.75/0.00155) times that of sucrose. When the same experiment was performed, the magnification of sweetness intensity of derivative 1 was 22600 times that of sucrose.
# [3] = Taste characteristics in a cola drink (9 items, similarity index vs cola drink containing 10% sucrose); format: in vivo, human; conditions: non-carbonated cola drink, PSE 10%, vs cola drink with 10% sucrose; smaller = closer to sucrose; 8 panelists
# Experimental: The following experiments were performed in the same way as that of Example 2. Instead of aqueous solution, the cola drink of each of derivatives 1 to 9 having a sweetness level equivalent to that of PSE 10% was prepared, and compared with the cola drink containing 10% sucrose. The evaluation method and so on were same as that of Example 2.
# When carbon dioxide is blown in the cola drink, the carbonated cola drink is prepared, however, the taste of the cola drink can be compared more easily in that without carbon dioxide. Thus the sensory evaluation of non-carbonated cola drink was performed.
# The composition of the cola drink employed was same as that of Example 1.
# (§3) The similarity indexes were calculated as those of aqueous solutions. The smaller the similarity index becomes, the better the taste balances, and the closer the taste is to the taste characteristics (quality) of sucrose. The total taste becomes preferable. The similarity indexes of each derivatives are shown as follows. […]
# The following experiments were conducted in the same way as that of Example 15. Instead of aqueous solution, the cola drink of each of derivatives 1 to 9 having a sweetness level equivalent to that of PSE 10% was prepared, and compared with the cola drink containing 10% sucrose. All of the evaluation method and so on were same as those of Example 15.
# When carbon dioxide is blown in the cola drink, the carbonated cola drink is prepared, however, the taste of the cola drink can be compared more easily in that without carbon dioxide. Thus the non-carbonated cola drink was organoleptically evaluated.
# The composition of the cola drink employed was same as that of Example 14.
# as §3, with “(quality)of” for “(quality) of”, “each of the” for “each”
# [4] = Taste characteristics in an aqueous solution (9 items, similarity index vs aqueous 10% sucrose solution); format: in vivo, human; conditions: PSE 10%, smaller = closer to sucrose, 8 panelists
# Experimental: The following experiments were performed using the water obtained by ion exchanging and further distilling the water.
# An aqueous solution of each of derivatives 1 to 9 having a sweetness level equivalent to that of PSE 10% was prepared, and compared with aqueous 10% sucrose solution with respect to the following 9 items, i.e., “onset of the taste”, “round taste”, “clear taste”, “lingering taste”, “peculiar taste”, “heavy taste”, “bitter taste”, “astringent taste” and “irritation”. The results were determined as 5 levels (−2 point: very weak, −1 point: a little weak, 0 point: same, +1 point: a little strong, +2 point: very strong) by 8 panelists, and the average points were calculated. The sample solutions of the derivatives equivalent to PSE 10%, were prepared by using the magnification of sweetness intensity measured in Example 1, and the amounts of each derivatives to be used were as follows.
# Next, the total of the absolute value of the deviation from sucrose in each of the evaluation items consisting of the onset of the taste, the round taste, the clear taste, the lingering taste, the peculiar taste, the heavy taste, the bitter taste, the astringent taste and the irritation was divided by 9 (total number of items) to calculate the similarity (which is referred to as “similarity index”). The smaller the similarity index becomes, the better the taste balances, and the closer the taste is to the taste characteristics (quality) of sucrose. The total taste becomes preferable. The similarity indexes of each derivatives are shown as follows.
# To the aqueous solution of derivative 1 having a sweetness level equivalent to that of PSE 10%, salt was added as final concentratins of 0.1%, 0.2% and 0.5% to compare with the aqueous solution of 10% sucrose for by 2 points comparison method (n=8) and evaluate the characteristics of the taste.
# The sensory evaluation was performed by the same way as Example 6.
# The following experiments were conducted using the water obtained by ion exchanging and further distilling tap water.
# An aqueous solution of each of derivatives 1 to 9 having a sweetness level equivalent to that of PES 10% was prepared, and compared with aqueous 10% sucrose solution with respect to 9 items, namely, “the onset of the taste”, “round taste”, “clear taste”, “lingering taste”, “peculiar taste”, “heavy taste”, “bitter taste”, “astringent taste” and “irritation”. The results were determined as 5 levels (−2 point: very weak, −1 point: a little weak, 0 point: same, +1 point: a little strong, +2 point: very strong) by 8 panelists, and the average points were calculated.
# Next, the total of the absolute value of the deviation from sucrose in each of the evaluation items consisting of onset of the taste, round taste, clear taste, lingering taste, peculiar taste, heavy taste, bitter taste, astringent taste and irritation was divided by 9 (total number of items) to calculate the similarity (which is refer to as “similarity index”). The smaller the similarity index becomes, the better the taste balances, and the closer the taste is to the taste characteristics (quality) of sucrose. The total taste becomes preferable. The similarity indexes of each of the derivatives are shown as follows.
# [5] = cited from earlier work
# [6] = Equivalent concentration of bitter taste, sensory evaluation, mixed amino acids (Example 29); format: in vivo, human; conditions: 2% mixed amino acids; addition: Derivative 2 10 ppm, Glycyrrhizin 250 ppm, Sucrose 50000 ppm; no addition 0.105
# Experimental: With respect to the solution produced by adding derivative 1 (the product of the present invention), or adding nothing (no addition; the reference product) in the concentration shown in the following table 4 to the amino acid solution (2% solution of arginine by weight), the sensory evaluation was performed (using 10 panelists), and the equivalent concentration of bitter taste was determined. The results were shown in the table 4, wherein the equivalent concentration of bitter taste was shown in the concentration of aqueous solution of anhydrous caffeine which is a substance of bitter taste.
# With respect to the solution produced by adding derivative 2, Glycyrrhizin or sucrose (the product of the present invention), or adding nothing (no addition; the-reference product) to 2% (by weight) solution of the mixed amino acids (leucine:valine:isoleucine=1:0.5:0.5 by weight), the sensory evaluation was performed (using 10 panelists), and the equivalent concentration of bitter taste was determined in the same way as that described in Example 28, and shown in the table 5.
Compound,Amount equivalent to PSE 10% [1],Amount equivalent to PSE 10% [2],Similarity index [3],Similarity index [4],magnification used for the sweetness intensity of the another sweetener with a high intense sweetness ([5]; values used for calculation in Example 5),Equivalent concentration of bitter taste [6],"magnification of sweetness intensity (numerical values in brackets) ([5]; values used for calculation in Example 17, sucrose = 1)"
"COC(=O)[C@H](Cc1ccccc1)NC(=O)[C@H](CC(=O)O)NCCCc1ccc(O)cc1O [Derivative 9, N-[N-[3-(2,4-dihydroxyphenyl)propyl]-L-α-aspartyl]-L-phenylalanine 1-methyl ester]",13.3 mg/1000 ml,12.5 mg/1000 ml,1.00,0.77,–,–,–
"COC(=O)[C@H](Cc1ccccc1)NC(=O)[C@H](CC(=O)O)NCCCc1ccc(OC)cc1O [Derivative 7, N-[N-[3-(2-hydroxy-4-methoxyphenyl)propyl]-L-α-aspartyl]-L-phenylalanine 1-methyl ester]",9.4 mg/1000 ml,9.0 mg/1000 ml,0.90,0.86,–,–,–
"COC(=O)[C@H](Cc1ccccc1)NC(=O)[C@H](CC(=O)O)NCCC(C)(C)c1ccc(OC)cc1 [Derivative 5, N-[N-[3-(4-methoxyphenyl)-3-methylbutyl] -L-α-aspartyl] -L-phenylalanine 1-methyl ester]",12.5 mg/1000 ml,11.9 mg/1000 ml,1.34,1.38,–,–,–
CC1(C)[C@@H](O[C@H]2O[C@H](C(=O)O)[C@@H](O)[C@H](O)[C@H]2O[C@@H]2O[C@H](C(=O)O)[C@@H](O)[C@H](O)[C@H]2O)CC[C@]2(C)[C@H]3C(=O)C=C4[C@@H]5C[C@@](C)(C(=O)O)CC[C@]5(C)CC[C@@]4(C)[C@]3(C)CC[C@@H]12 [Glycyrrhizin],–,–,–,–,170 times,0.105 g/100 g,–
OC[C@H]1O[C@@](CO)(O[C@H]2O[C@H](CO)[C@@H](O)[C@H](O)[C@H]2O)[C@@H](O)[C@@H]1O [Sucrose],–,–,0,–,–,0.067 g/100 g,1
"COC(=O)[C@H](Cc1ccccc1)NC(=O)[C@H](CC(=O)O)NCCC(C)(C)c1ccc(OC)c(O)c1 [Derivative 3, N-[N-[3-(3-hydroxy-4-methoxyphenyl)-3-methylbutyl]-L-α-aspartyl]-L-phenylalanine 1-methyl ester]",2.7 mg/1000 ml,2.3 mg/1000 ml,1.11,1.04,–,–,–
